Experiments:
[1] = system: H661 lung cancer cells; test: MTT cell viability assay, H661; assay type: cell-based, human; conditions: mean of three independent experiments (N = 9)
Description: (§1) To evaluate the effect of the examined series on the viability of different lung cancer cells, MTT assay was conducted after exposing A549, H1299, and H661 cell lines to increasing concentrations of each compound for 48 h. […] Table 2 and Supplementary Figure S92 (see Supplementary Materials) show the 50% inhibitory concentration (IC50) values for the compounds under investigation in A549, H1299, and H661 lung cancer cells.
(§2) The human lung cancer cell lines A549, H1299 and H661 and the normal cells dermal fibroblasts were obtained from the American Type Culture Collection ATCC. Cells were cultured as a monolayer at seeding density of 8 × 10^3 cells per well in high glucose Dulbecco’s modified eagle medium (DMEM) (Invitrogen, USA), as previously described. The in vitro assessment of the antitumorigenic activities related to the studied compounds was undertaken using the 3-(4,5-dimethylthiazol-2yl)-2,5-diphenyl tetrazolium bromide (MTT) colorimetric assay, as previously reported. The compounds under investigation were tested in three triplicates of each concentration in three independent assays for a total of nine replicates. Both positive (cisplatin) and negative (untreated culture) controls were applied under the same experimental conditions. Cells were cultured for 48 h at 37 °C in a 5% CO2 incubator. Afterwards, MTT assay was carried out where viable cell count was determined based on the amount of formazan crystals, as verified by the absorbance at 490 nm.
(§3) Data was analyzed by Graphpad Prism software (Graphpad Software Inc. Jolla, CA, USA) for the determination of IC50 value. All data were expressed as the average of triplicate experiments.

[2] = system: human dermal fibroblasts; test: MTT cell viability assay, normal dermal fibroblasts; assay type: cell-based; conditions: Homo sapiens, Fibroblast, 48 h, noncancerous human dermal fibroblasts
Description: as §1, §2, §3

[3] = system: A549 cells; test: Colony formation in soft agar assay; assay type: cell-based, human; design: Average Colony Size: unit not given here; conditions: day 12
Description: To investigate the effect of treatment with either potent compound 22 or 23 at two different concentrations (5 and 10 µM) on the colony-forming capability of lung cancer cells, A549 cells were treated with either concentration for 24 h. Afterwards, cells were grown on soft agar.
To carry out the soft agar assay, a bottom agar film of 1% (w/v) was prepared by mixing autoclaved 1% (w/v) agar solution with 2× DMEM medium in a 1:1 ratio and allowed to solidify at room temperature. A mixture of 1 × 10^4 of A549 cells treated with either compound NV7 (5 µM and 10 µM) or NV8 (5 µM and 10 µM) and 0.6% (w/v) agar solution was prepared in 1:1 ratio and poured on top of the bottom layer and left to solidify. Plate was incubated for 2 weeks. Photos were captured after 12 days using EVOS XL Core imaging system (Invitrogen, Waltham, MA, USA).

[4] = system: A549 lung cancer cells; test: MTT cell viability assay, A549; assay type: cell-based, human; conditions: Homo sapiens, A549, 48 h, mean of three independent experiments (N = 9)
Description: as §1, §2, §3

[5] = system: A549 cells; test: Wound healing (migration) assay; assay type: cell-based; conditions: Homo sapiens, A549, 24 h, A549, 10 µM, read-out: % inhibition of wound closure
Description: The wound healing assay was performed in A549 cells to evaluate the effect of the synthesized series on lung cancer cell migration, as shown in Table 3. The wound of the control sample was completely closed after 24 h. […] Cell migration was inhibited after 24 h of treatment with compounds 22 or 23 compared to untreated control cells.
A549 cells were seeded in inserts (Ibidi GmbH, Gräfelfing, Germany) at concentration of 30,000 per insert in 70 μL medium and incubated for 24 h. Afterward, inserts were removed and cells incubated with 10 μg/mL of mitomycin C for 2 h to stop cell proliferation. The medium was removed, and cells were washed three times then cells were treated with 10 µM concentration of the examined compound. Images were captured at 24 h using BOECO microscope coupled with 5.0 Mega Cmos camera at 4× magnification. Digital images were taken using ISCapture software and wound width was measured using MIPAR software (MIPAR, Worthington, OH, USA).

[6] = system: H1299 lung cancer cells; test: MTT cell viability assay, H1299; assay type: cell-based, human; conditions: Homo sapiens, NCI-H1299, 48 h, mean of three independent experiments (N = 9)
Description: as §1, §2, §3

IC50 ([1]; Homo sapiens, NCI-H661, 48 h) | IC50 [4] | IC50 [6] | IC50 ([1]; 48 h) | SMILES | IC50 [2] | Average Colony Count ([3]; 5 µM) | Average Colony Size ([3]; 5 µM) | Average Colony Count ([3]; 10 µM) | Average Colony Size ([3]; 10 µM) | inhibition at 10 µM [5]
25.6 µM | 23.5 µM | 29.1 µM |  | CCCCCCCCCC[n+]1ccc(C(=O)N/N=C/c2ccc[n+](CCCCCCCCCC)c2)cc1 [Compound 22, 1-Decyl-3-((2-(1-decylpyridin-1-ium-4-carbonyl)hydrazono)methyl)pyridin-1-ium Hexafluorophosphate] | > 300 µM | 210 | 16356 | 98 | 11159 | 67.6%
 | 13.5 µM | 10.8 µM | 11.3 µM | CCCCCCCCCC[n+]1ccc(C(=O)NN=Cc2ccc[n+](CCCCCCCCCC)c2)cc1.F[B-](F)(F)F.F[B-](F)(F)F [Compound 23, 1-Decyl-3-((2-(1-decylpyridin-1-ium-4-carbonyl)hydrazono)methyl)pyridin-1-ium Tetrafluoroborate] | > 300 µM | 135 | 43771 | 45 | 16837 | 67.1%

From publication PMC8508903, “Novel Dipyridinium Lipophile-Based Ionic Liquids Tethering Hydrazone Linkage: Design, Synthesis and Antitumorigenic Study” (International Journal of Molecular Sciences, 2021)
